Results reported in ChEMBL document CHEMBL2074049, “Identity of the organic cation transporter OCT3 as the extraneuronal monoamine transporter (uptake2) and evidence for the expression of the transporter in the brain” (J Biol Chem, 1998).

Tests used:
[1] = target: T1, Solute carrier family 22 member 3 (Rattus norvegicus, UniProt O88446); assay: TP_TRANSPORTER: inhibition of MPP+ uptake (MPP+: 1 uM) in OCT3-expressing HRPE cells; type: functional, cell-based
T1 sequence (O88446 whole entry): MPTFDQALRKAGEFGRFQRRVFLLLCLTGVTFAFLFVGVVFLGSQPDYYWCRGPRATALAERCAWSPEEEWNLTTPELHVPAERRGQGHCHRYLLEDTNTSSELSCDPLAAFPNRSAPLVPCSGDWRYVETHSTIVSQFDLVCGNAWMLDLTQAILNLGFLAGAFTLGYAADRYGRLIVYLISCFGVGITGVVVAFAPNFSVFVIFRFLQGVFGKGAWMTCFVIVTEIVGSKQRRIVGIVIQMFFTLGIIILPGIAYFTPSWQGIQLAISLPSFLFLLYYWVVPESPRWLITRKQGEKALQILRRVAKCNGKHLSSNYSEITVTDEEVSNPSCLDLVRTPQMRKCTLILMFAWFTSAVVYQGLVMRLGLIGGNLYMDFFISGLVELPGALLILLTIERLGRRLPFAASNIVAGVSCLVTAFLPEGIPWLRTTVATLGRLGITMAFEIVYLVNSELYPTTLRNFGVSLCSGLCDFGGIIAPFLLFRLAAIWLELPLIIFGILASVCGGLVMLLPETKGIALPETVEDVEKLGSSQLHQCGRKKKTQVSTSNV

[2] = target: T1, Solute carrier family 22 member 3; assay: TP_TRANSPORTER: inhibition of Dopamine uptake (Dopamine: 0.15 uM, Cocaine: 100 uM) in OCT3-expressing HRPE cells; type: functional, cell-based; conditions: human
[3] = target: T2, Solute carrier family 22 member 1 (Rattus norvegicus, UniProt Q63089); assay: TP_TRANSPORTER: inhibition of TEA uptake (TEA: 20 uM, Corticosterone: 100 uM) in OCT1-expressing HRPE cells; type: functional, cell-based; conditions: human
T2 sequence (Q63089 whole entry): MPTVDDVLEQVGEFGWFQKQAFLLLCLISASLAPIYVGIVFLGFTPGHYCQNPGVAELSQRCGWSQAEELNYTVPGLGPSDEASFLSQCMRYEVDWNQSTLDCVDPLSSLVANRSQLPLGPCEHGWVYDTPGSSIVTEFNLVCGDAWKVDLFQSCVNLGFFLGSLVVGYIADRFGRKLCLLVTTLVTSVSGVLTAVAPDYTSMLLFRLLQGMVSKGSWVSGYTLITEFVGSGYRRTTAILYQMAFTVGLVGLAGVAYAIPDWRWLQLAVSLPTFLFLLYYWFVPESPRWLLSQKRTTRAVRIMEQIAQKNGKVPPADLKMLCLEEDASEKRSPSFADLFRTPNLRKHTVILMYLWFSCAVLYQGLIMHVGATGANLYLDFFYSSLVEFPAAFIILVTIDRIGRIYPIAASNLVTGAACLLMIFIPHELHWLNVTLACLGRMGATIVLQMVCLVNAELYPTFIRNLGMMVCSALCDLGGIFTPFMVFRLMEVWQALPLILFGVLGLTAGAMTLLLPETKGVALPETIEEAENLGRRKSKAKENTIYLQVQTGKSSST

[4] = target: T1, Solute carrier family 22 member 3; assay: TP_TRANSPORTER: inhibition of TEA uptake (TEA: 20 uM) in OCT3-expressing HRPE cells; type: functional, cell-based
[5] = target: T3, Solute carrier family 22 member 2 (Rattus norvegicus, UniProt Q9R0W2); assay: TP_TRANSPORTER: inhibition of TEA uptake (TEA: 20 uM) in OCT2-expressing HRPE cells; type: functional, cell-based
T3 sequence (Q9R0W2 whole entry): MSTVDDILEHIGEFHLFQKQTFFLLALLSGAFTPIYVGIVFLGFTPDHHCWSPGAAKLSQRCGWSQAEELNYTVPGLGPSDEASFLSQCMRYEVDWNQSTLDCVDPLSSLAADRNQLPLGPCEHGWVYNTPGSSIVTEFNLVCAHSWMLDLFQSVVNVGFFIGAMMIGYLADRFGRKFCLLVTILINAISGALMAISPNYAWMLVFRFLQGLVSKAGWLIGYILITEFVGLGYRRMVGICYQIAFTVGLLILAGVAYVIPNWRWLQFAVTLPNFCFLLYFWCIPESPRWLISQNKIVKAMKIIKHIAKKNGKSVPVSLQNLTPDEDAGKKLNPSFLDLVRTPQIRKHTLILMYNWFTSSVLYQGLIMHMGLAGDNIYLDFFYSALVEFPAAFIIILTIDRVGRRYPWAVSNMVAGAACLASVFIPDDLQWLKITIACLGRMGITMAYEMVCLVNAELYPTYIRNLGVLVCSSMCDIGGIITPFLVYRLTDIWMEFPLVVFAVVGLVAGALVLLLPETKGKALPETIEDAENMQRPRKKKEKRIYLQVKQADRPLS

[6] = target: T2, Solute carrier family 22 member 1; assay: TP_TRANSPORTER: inhibition of TEA uptake (TEA: 20 uM, Deoxycorticosterone: 100 uM) in OCT1-expressing HRPE cells; type: functional, cell-based; conditions: human
[7] = target: T1, Solute carrier family 22 member 3; assay: (§1) TP_TRANSPORTER: uptake in OCT3-expressing HRPE cells; type: functional, cell-based; conditions: human
[8] = target: T2, Solute carrier family 22 member 1; assay: TP_TRANSPORTER: inhibition of TEA uptake (TEA: 20 uM, beta-Estradiol: 100 uM) in OCT1-expressing HRPE cells; type: functional, cell-based; conditions: human
[9] = target: T2, Solute carrier family 22 member 1; assay: TP_TRANSPORTER: inhibition of TEA uptake in OCT1-expressing HRPE cells; type: functional, cell-based; conditions: human
[10] = target: T2, Solute carrier family 22 member 1; assay: TP_TRANSPORTER: inhibition of TEA uptake (TEA: 20 uM, Testosterone: 100 uM) in OCT1-expressing HRPE cells; type: functional, cell-based; conditions: human
[11] = substrate: C[n+]1ccc(-c2ccccc2)cc1; assay: TP_TRANSPORTER: uptake (electrogenesis, -50mV) in Xenopus laevis oocytes; type: functional, cell-based, Oocyte
[12] = substrate: C[n+]1ccc(-c2ccccc2)cc1; assay: as §1; type: functional, cell-based

In the case of CC(N)Cc1ccccc1 (stereo unspecified) [AMPHETAMINE], the IC50 [1] is reported as 42 µM.

C[C@]12C[C@H](O)[C@H]3[C@@H](CCC4=CC(=O)CC[C@@]43C)[C@@H]1CC[C@@H]2C(=O)CO [CORTICOSTERONE] was tested, and the Activity [2] was “inhibitor [(at a rough estimate) 5 % of control]”, the Activity [3] was “is not an inhibitor [-]” and the IC50 [4] was 4.9 µM. For the same molecule, the IC50 [5] was 4.2 µM.

CNCCCN1c2ccccc2CCc2ccccc21 [DESIPRAMINE] was tested, and the IC50 [1] was 68 µM.

With C[C@]12CC[C@H]3[C@@H](CCC4=CC(=O)CC[C@@]43C)[C@@H]1CC[C@@H]2C(=O)CO [DESOXYCORTICOSTERONE] the Activity [6] was “is not an inhibitor [-]”, the IC50 [4] was 8.4 µM and the IC50 [5] was 1.9 µM.

In the case of NCCc1ccc(O)c(O)c1 [DOPAMINE], the IC50 [4] is reported as 384 µM, the IC50 [5] is reported as 2300 µM and the Activity [7] is reported as “substrate [+]”. For the same molecule, the IC50 [1] was 62 µM.

C[C@]12CC[C@@H]3c4ccc(O)cc4CC[C@H]3[C@@H]1CC[C@@H]2O [ESTRADIOL] was tested, and the IC50 [4] was 1.1 µM, the IC50 [5] was 84.8 µM and the Activity [8] was “is not an inhibitor [-]”.

For CN[C@@H](C)Cc1ccccc1 [METHAMPHETAMINE], the IC50 [1] was 248 µM.

With NC[C@H](O)c1ccc(O)c(O)c1 [NOREPINEPHRINE] the IC50 [4] was 434 µM and the IC50 [5] was 11000 µM.

In the case of CC(=O)[C@H]1CC[C@H]2[C@@H]3CCC4=CC(=O)CC[C@]4(C)[C@H]3CC[C@]12C [PROGESTERONE], the IC50 [4] is reported as 10.5 µM, the IC50 [5] is reported as 1.6 µM and the Activity [9] is reported as “inhibitor [+]”.

NCCc1c[nH]c2ccc(O)cc12 [SEROTONIN] was tested, and the IC50 [1] was 97 µM.

With C[C@]12CC[C@H]3[C@@H](CCC4=CC(=O)CC[C@@]43C)[C@@H]1CC[C@@H]2O [TESTOSTERONE] the Activity [10] was “is not an inhibitor [-]”.

B1: Solute carrier family 22 member 3 (Rattus norvegicus) (protein)
chain: MPTFDQALRKAGEFGRFQRRVFLLLCLTGVTFAFLFVGVVFLGSQPDYYWCRGPRATALAERCAWSPEEEWNLTTPELHVPAERRGQGHCHRYLLEDTNTSSELSCDPLAAFPNRSAPLVPCSGDWRYVETHSTIVSQFDLVCGNAWMLDLTQAILNLGFLAGAFTLGYAADRYGRLIVYLISCFGVGITGVVVAFAPNFSVFVIFRFLQGVFGKGAWMTCFVIVTEIVGSKQRRIVGIVIQMFFTLGIIILPGIAYFTPSWQGIQLAISLPSFLFLLYYWVVPESPRWLITRKQGEKALQILRRVAKCNGKHLSSNYSEITVTDEEVSNPSCLDLVRTPQMRKCTLILMFAWFTSAVVYQGLVMRLGLIGGNLYMDFFISGLVELPGALLILLTIERLGRRLPFAASNIVAGVSCLVTAFLPEGIPWLRTTVATLGRLGITMAFEIVYLVNSELYPTTLRNFGVSLCSGLCDFGGIIAPFLLFRLAAIWLELPLIIFGILASVCGGLVMLLPETKGIALPETVEDVEKLGSSQLHQCGRKKKTQVSTSNV
Molecule B1 has a Km [11] of 24 µM and a Km [12] of 91 µM.
